Data from patent publication US20240391948A1, “NOVEL COMPOUND THAT INHIBITS TNF-ALPHA GENERATION AND INFLAMMASOME ACTIVITY AND PREPARATION METHOD THEREFOR” (SHAPERON INC., priority 2021, published 2024).

What was measured:
Type in all cases: cell-based
[1] = tested on: J774A.1 (Mouse BALB/c monocyte macrophage cell line) cells; assay: LPS-induced TNF-α secretion inhibition in J774A.1 cells; conditions: J774.A1, 1 μM compound, graded compared to taurodeoxycholic acid (positive control), read-out: TNF-α production inhibition grade
Method in brief: (§1)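 Mouse J774A.1 macrophages treated with 1 μM compound; TNF-α secretion measured after LPS stimulation and IL-1β secretion after LPS+ATP stimulation. Suppression graded against taurodeoxycholic acid: A over 100%, B 50–100%, C 20–50%, D under 20%.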

[2] = tested on: J774A.1 (Mouse BALB/c monocyte macrophage cell line) cells; assay: LPS+ATP-induced IL-1β secretion inhibition in J774A.1 cells; conditions: J774.A1, 1 μM compound, graded compared to taurodeoxycholic acid (positive control), read-out: IL-1β production inhibition grade
Method in brief: as §1

[3] = tested on: U937 cells (human monocytic cell line); assay: Pam2CSK4-induced TNF-α secretion inhibition in PMA-differentiated U937 cells; conditions: U-937, U937 cells differentiated with PMA, read-out: TNF-α production inhibition grade (IC50)
Method in brief: (§2)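 U937 cells were PMA-differentiated into macrophages and treated with compound before inflammatory stimulus. TNF-α secretion was induced with Pam2CSK4 and IL-1β secretion with BzATP. IC50 (μM) values are graded A-D, with separate cut-offs per cytokine.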

[4] = tested on: U937 cells (human monocytic cell line); assay: BzATP-induced IL-1β secretion inhibition in PMA-differentiated U937 cells; conditions: U-937, U937 cells differentiated with PMA, read-out: IL-1β production inhibition grade (IC50)
Method in brief: as §2

## C[C@H](CCC(=O)NC[C@H](C)S(=O)(=O)O)[C@H]1CC[C@H]2[C@@H]3CC[C@@H]4C[C@H](O)CC[C@]4(C)[C@H]3CC[C@]12C [NC10078]
[1]
  inhibition at 1 µM: < 20%
[2]
  inhibition at 1 µM: > 100%
[3]
  IC50: < 500 nM
[4]
  IC50: < 50 nM

## C[C@H](CCC(=O)NCCC(=O)O)[C@H]1CC[C@H]2[C@@H]3CC[C@@H]4C[C@H](O)CC[C@]4(C)[C@H]3CC[C@]12C [NC10053]
[1]
  inhibition at 1 µM: 50 to 100%
[2]
  inhibition at 1 µM: 50 to 100%
[3]
  IC50: 1000 to 2000 nM
[4]
  IC50: 50 to 100 nM

## C[C@H](CCC(=O)N[C@H](Cc1ccccc1)CS(=O)(=O)O)[C@H]1CC[C@H]2[C@@H]3CC[C@@H]4C[C@H](O)CC[C@]4(C)[C@H]3CC[C@]12C [NC10066]
[1]
  inhibition at 1 µM: < 20%
[2]
  inhibition at 1 µM: > 100%
[3]
  IC50: 1000 to 2000 nM
[4]
  IC50: < 50 nM

## CC[C@H]1[C@@H](O)[C@@H]2[C@H](C[C@H](O)[C@]3(C)[C@@H]([C@H](C)CCC(=O)N4CCC[C@H]4CS(=O)(=O)O)CC[C@@H]23)[C@@]2(C)CC[C@@H](O)C[C@@H]12 [NC50021]
[1]
  inhibition at 1 µM: < 20%
[2]
  inhibition at 1 µM: 20 to 50%
[3]
  IC50: 500 to 1000 nM
[4]
  IC50: ≥ 200 nM

## CC[C@H]1[C@@H](O)[C@@H]2[C@H](C[C@H](O)[C@]3(C)[C@@H]([C@H](C)CCC(=O)N(CCS(=O)(=O)O)C(C)C)CC[C@@H]23)[C@@]2(C)CC[C@@H](O)C[C@@H]12 [NC50007]
[1]
  inhibition at 1 µM: < 20%
[2]
  inhibition at 1 µM: > 100%
[3]
  IC50: 1000 to 2000 nM
[4]
  IC50: 50 to 100 nM

## C[C@H](CCC(=O)Nc1ccc(S(=O)(=O)O)cc1)[C@H]1CC[C@H]2[C@@H]3CC[C@@H]4C[C@H](O)CC[C@]4(C)[C@H]3CC[C@]12C [NC10015]
[1]
  inhibition at 1 µM: < 20%
[2]
  inhibition at 1 µM: < 20%
[3]
  IC50: ≥ 2000 nM
[4]
  IC50: < 50 nM

## CC[C@H]1[C@@H](O)[C@@H]2[C@H](CC[C@]3(C)[C@@H]([C@H](C)CCC(=O)N(C)CCS(=O)(=O)O)CC[C@@H]23)[C@@]2(C)CC[C@@H](O)C[C@@H]12 [NC40004]
[1]
  inhibition at 1 µM: < 20%
[2]
  inhibition at 1 µM: 50 to 100%
[3]
  IC50: ≥ 2000 nM
[4]
  IC50: ≥ 200 nM

## C[C@H](CCC(=O)N[C@H](CO)CS(=O)(=O)O)[C@H]1CC[C@H]2[C@@H]3CC[C@@H]4C[C@H](O)CC[C@]4(C)[C@H]3CC[C@]12C [NC10081]
[1]
  inhibition at 1 µM: > 100%
[2]
  inhibition at 1 µM: > 100%
[3]
  IC50: 500 to 1000 nM
[4]
  IC50: < 50 nM

## C[C@H](CCC(=O)N[C@@H](CO)CS(=O)(=O)O)[C@H]1CC[C@H]2[C@@H]3[C@H](O)C[C@@H]4C[C@H](O)CC[C@]4(C)[C@H]3C[C@H](O)[C@]12C [NC20024]
[1]
  inhibition at 1 µM: < 20%
[2]
  inhibition at 1 µM: 20 to 50%
[3]
  IC50: < 500 nM
[4]
  IC50: ≥ 200 nM

## C[C@H](CCC(=O)N[C@H](CS(=O)(=O)O)c1ccccc1)[C@H]1CC[C@H]2[C@@H]3CC[C@@H]4C[C@H](O)CC[C@]4(C)[C@H]3CC[C@]12C [NC10069]
[1]
  inhibition at 1 µM: < 20%
[2]
  inhibition at 1 µM: > 100%
[3]
  IC50: < 500 nM
[4]
  IC50: < 50 nM

## CC(C)[C@H](CS(=O)(=O)O)NC(=O)CC[C@@H](C)[C@H]1CC[C@H]2[C@@H]3CC[C@@H]4CC(=O)CC[C@]4(C)[C@H]3CC[C@]12C [NC30017]
[1]
  inhibition at 1 µM: < 20%
[2]
  inhibition at 1 µM: < 20%
[3]
  IC50: ≥ 2000 nM
[4]
  IC50: ≥ 200 nM

## CC[C@H]1[C@@H](O)[C@@H]2[C@H](CC[C@]3(C)[C@@H]([C@H](C)CCC(=O)N4CCC[C@H]4CS(=O)(=O)O)CC[C@@H]23)[C@@]2(C)CC[C@@H](O)C[C@@H]12 [NC40021]
[1]
  inhibition at 1 µM: < 20%
[2]
  inhibition at 1 µM: 50 to 100%
[3]
  IC50: 500 to 1000 nM
[4]
  IC50: ≥ 200 nM

## C[C@H](CCC(=O)N(CCS(=O)(=O)O)Cc1ccccc1)[C@H]1CC[C@H]2[C@@H]3CC[C@@H]4C[C@H](O)CC[C@]4(C)[C@H]3CC[C@]12C [NC10056]
[1]
  inhibition at 1 µM: 20 to 50%
[2]
  inhibition at 1 µM: 50 to 100%
[3]
  IC50: ≥ 2000 nM
[4]
  IC50: 50 to 100 nM

## C[C@H](CCC(=O)N(CCN(C)C)CCS(=O)(=O)O)[C@H]1CC[C@H]2[C@@H]3CC[C@@H]4C[C@H](O)CC[C@]4(C)[C@H]3CC[C@]12C [NC10091]
[1]
  inhibition at 1 µM: > 100%
[2]
  inhibition at 1 µM: > 100%
[3]
  IC50: 500 to 1000 nM
[4]
  IC50: < 50 nM

## C[C@H](CCC(=O)N(C)CCS(=O)(=O)O)[C@H]1CC[C@H]2[C@@H]3CC[C@@H]4CC(=O)CC[C@]4(C)[C@H]3CC[C@]12C [NC30004]
[1]
  inhibition at 1 µM: 20 to 50%
[2]
  inhibition at 1 µM: 20 to 50%
[3]
  IC50: 1000 to 2000 nM
[4]
  IC50: ≥ 200 nM

## CC[C@H]1[C@@H](O)[C@@H]2[C@H](CC[C@]3(C)[C@@H]([C@H](C)CCC(=O)N(CCS(=O)(=O)O)C(C)C)CC[C@@H]23)[C@@]2(C)CC[C@@H](O)C[C@@H]12 [NC40007]
[1]
  inhibition at 1 µM: < 20%
[2]
  inhibition at 1 µM: 50 to 100%
[3]
  IC50: 1000 to 2000 nM
[4]
  IC50: ≥ 200 nM

## C[C@H](CCC(=O)N1CCC[C@@H](S(=O)(=O)O)C1)[C@H]1CC[C@H]2[C@@H]3[C@H](O)C[C@@H]4C[C@H](O)CC[C@]4(C)[C@H]3C[C@H](O)[C@]12C [NC20010]
[1]
  inhibition at 1 µM: < 20%
[2]
  inhibition at 1 µM: 50 to 100%
[3]
  IC50: 1000 to 2000 nM
[4]
  IC50: < 50 nM

## C[C@H](CCC(=O)N1CCC(CCS(=O)(=O)O)CC1)[C@H]1CC[C@H]2[C@@H]3CC[C@@H]4C[C@H](O)CC[C@]4(C)[C@H]3CC[C@]12C [NC10012]
[1]
  inhibition at 1 µM: > 100%
[2]
  inhibition at 1 µM: > 100%
[3]
  IC50: < 500 nM
[4]
  IC50: < 50 nM

## C[C@H](CCC(=O)NCCCS(=O)(=O)O)[C@H]1CC[C@H]2[C@@H]3CC[C@@H]4C[C@H](O)CC[C@]4(C)[C@H]3CC[C@]12C [NC10014]
[1]
  inhibition at 1 µM: < 20%
[2]
  inhibition at 1 µM: < 20%
[3]
  IC50: 1000 to 2000 nM
[4]
  IC50: < 50 nM

## C[C@H](CCC(=O)NCCOS(=O)(=O)O)[C@H]1CC[C@H]2[C@@H]3CC[C@@H]4C[C@H](O)CC[C@]4(C)[C@H]3C[C@H](O)[C@]12C [NC10007]
[1]
  inhibition at 1 µM: 50 to 100%
[2]
  inhibition at 1 µM: 50 to 100%
[3]
  IC50: ≥ 2000 nM
[4]
  IC50: < 50 nM

## C[C@H](CCC(=O)N(CCN(C)C)CCS(=O)(=O)O)[C@H]1CC[C@H]2[C@@H]3CC[C@@H]4C[C@H](O)CC[C@]4(C)[C@H]3C[C@H](O)[C@]12C [NC10050]
[1]
  inhibition at 1 µM: < 20%
[2]
  inhibition at 1 µM: > 100%
[3]
  IC50: < 500 nM
[4]
  IC50: 50 to 100 nM

## CC[C@H]1[C@@H](O)[C@@H]2[C@H](C[C@H](O)[C@]3(C)[C@@H]([C@H](C)CCC(=O)N[C@H](CS(=O)(=O)O)C(C)C)CC[C@@H]23)[C@@]2(C)CC[C@@H](O)C[C@@H]12 [NC50016]
[1]
  inhibition at 1 µM: < 20%
[2]
  inhibition at 1 µM: > 100%
[3]
  IC50: 500 to 1000 nM
[4]
  IC50: 50 to 100 nM

## CC[C@H]1[C@@H](O)[C@@H]2[C@H](CC[C@]3(C)[C@@H]([C@H](C)CCC(=O)N4CCC[C@@H]4CS(=O)(=O)O)CC[C@@H]23)[C@@]2(C)CC[C@@H](O)C[C@@H]12 [NC40020]
[1]
  inhibition at 1 µM: < 20%
[2]
  inhibition at 1 µM: > 100%
[3]
  IC50: 1000 to 2000 nM
[4]
  IC50: 100 to 200 nM
